According to US8846698B2, “Pyrrolo[2,3-d]pyrimidine tropomysin-related kinase inhibitors” (Pfizer Limited, priority 2011, dated 2014):

Molecular target: TRKA (Homo sapiens (Human), UniProt P04629)
Test: Isolated TRK enzyme assay (HTRF KinEASE-TK), TRKA
Format: biochemical
Settings: read-out: Trka enzyme (IC50)

Chain of TRKA (P04629 441-796): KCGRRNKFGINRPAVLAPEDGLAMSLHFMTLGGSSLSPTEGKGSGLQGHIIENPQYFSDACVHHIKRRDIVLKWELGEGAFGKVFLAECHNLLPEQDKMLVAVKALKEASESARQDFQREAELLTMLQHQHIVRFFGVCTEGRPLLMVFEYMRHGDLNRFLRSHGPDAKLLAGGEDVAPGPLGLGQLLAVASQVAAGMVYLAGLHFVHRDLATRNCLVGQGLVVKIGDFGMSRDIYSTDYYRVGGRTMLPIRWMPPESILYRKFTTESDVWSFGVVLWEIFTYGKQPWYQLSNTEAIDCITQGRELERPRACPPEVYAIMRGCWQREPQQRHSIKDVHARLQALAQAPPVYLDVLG

SMILES	IC50 [nM]
COCC(C)(C)n1cc(C(=O)c2cncc(NC(=O)Cc3ccc(Cl)cn3)c2)c2cncnc21 [Example 536, 2-(5-Chloro-pyridin-2-yl)-N-{5-[7-(2-methoxy-1,1-dimethyl-ethyl)-7H-pyrrolo[2,3-d]pyrimidine-5-carbonyl]-pyridin-3-yl}-acetamide]	1.57
CC(C)n1cc(C(=O)c2cncc(NC(=O)c3cnn4cccnc34)c2)c2cncnc21 [Example 474, Pyrazolo[1,5-a]pyrimidine-3-carboxylic acid [5-(7-isopropyl-7H-pyrrolo[2,3-d]pyrimidine-5-carbonyl)-pyridin-3-yl]-amide]	4420
CC(C)n1cc(C(=O)c2cncc(NC(=O)c3cnco3)c2)c2cncnc21 [Example 390, Oxazole-5-carboxylic acid [5-(7-isopropyl-7H-pyrrolo[2,3-d]pyrimidine-5-carbonyl)-pyridin-3-yl]-amide]	9800
CC(CO)n1cc(C(=O)c2cncc(NC(=O)Cc3cccc(C(F)(F)F)c3)c2)c2cnc(N)nc21 (single isomer, unassigned) [Example 215, N-(5-{[2-amino-7-(2-hydroxy-1-methylethyl)-7H-pyrrolo[2,3-d]pyrimidin-5-yl]carbonyl}pyridin-3-yl)-2-[3-(trifluoromethyl)phenyl]acetamide]	4.4
CC(C)n1cc(C(=O)c2cncc(NC(=O)c3coc(C4CC4)n3)c2)c2cncnc21 [Example 401, 2-Cyclopropyl-oxazole-4-carboxylic acid [5-(7-isopropyl-7H-pyrrolo[2,3-d]pyrimidine-5-carbonyl)-pyridin-3-yl]-amide]	132
Cn1cc(C(=O)c2cncc(NC(=O)CCc3cccc(Cl)c3)c2)c2cncnc21 [Example 323, 3-(3-chlorophenyl)-N-{5-[(7-methyl-7H-pyrrolo[2,3-d]pyrimidin-5-yl)carbonyl]pyridin-3-yl}propanamide]	3100
Cn1cc(C(=O)c2cncc(NC(=O)Cc3c(F)cc(F)cc3F)c2)c2cncnc21 [Example 171, N-{5-[(7-methyl-7H-pyrrolo[2,3-d]pyrimidin-5-yl)carbonyl]pyridin-3-yl}-2-(2,4,6-trifluorophenyl)acetamide]	1280
CC(C)n1cc(C(=O)c2cncc(NC(=O)Cn3ccnc3)c2)c2cncnc21 [Example 372, 2-Imidazol-1-yl-N-[5-(7-isopropyl-7H-pyrrolo[2,3-d]pyrimidine-5-carbonyl)-pyridin-3-yl]-acetamide]	9800
CC(C)n1cc(C(=O)c2cncc(NC(=O)c3cnc4[nH]ccc4c3)c2)c2cncnc21 [Example 436, 1H-Pyrrolo[2,3-b]pyridine-5-carboxylic acid [5-(7-isopropyl-7H-pyrrolo[2,3-d]pyrimidine-5-carbonyl)-pyridin-3-yl]amide]	205
Cn1cc(C(=O)c2cncc(NC(=O)COc3ccc(F)cc3)c2)c2cncnc21 [Example 334, 2-(4-fluorophenoxy)-N-{5-[(7-methyl-7H-pyrrolo[2,3-d]pyrimidin-5-yl)carbonyl]pyridin-3-yl}acetamide]	1550
Cc1[nH]c2ccc(Cl)cc2c1CC(=O)Nc1cncc(C(=O)c2cn(C(C)C)c3ncncc23)c1 [Example 110, 2-(5-chloro-2-methyl-1H-indol-3-yl)-N-{5-[(7-isopropyl-7H-pyrrolo[2,3-d]pyrimidin-5-yl)carbonyl]pyridin-3-yl}acetamide]	36.5
CC(C)n1cc(C(=O)c2cncc(NC(=O)[C@H](N)Cc3ccc(C(=O)c4ccccc4)cc3)c2)c2cncnc21 [Example 285, 4-benzoyl-N-{5-[(7-isopropyl-7H-pyrrolo[2,3-d]pyrimidin-5-yl)carbonyl]pyridin-3-yl}-D-phenylalaninamide]	7820
CC(C)n1cc(C(=O)c2cncc(NC(=O)c3ccc4nccn4c3)c2)c2cncnc21 [Example 423, Imidazo[1,2-a]pyridine-6-carboxylicacid [5-(7-isopropyl-7H-pyrrolo[2,3-d]pyrimidine-5-carbonyl)-pyridin-3-yl]amide]	1330
Cc1nc2ncccn2c1C(=O)Nc1cncc(C(=O)c2cn(C(C)C)c3ncncc23)c1 [Example 461, 2-Methyl-imidazo[1,2-a]pyrimidine-3-carboxylic acid [5-(7-isopropyl-7H-pyrrolo[2,3-d]pyrimidine-5-carbonyl)-pyridin-3-yl]-amide]	9800
CC(C)(CO)n1cc(C(=O)c2cncc(NC(=O)Cc3ccc4ocnc4c3)c2)c2cnc(N)nc21 [Example 257, N-(5-{[2-amino-7-(2-hydroxy-1,1-dimethylethyl)-7H-pyrrolo[2,3-d]pyrimidin-5-yl]carbonyl}pyridin-3-yl)-2-(1,3-benzoxazol-5-yl)acetamide]	12.2
CN(C(=O)Cc1ccc(Cl)cc1)c1cncc(C(=O)c2cn(C(C)(C)C)c3ncncc23)c1 [Example 544, N-[5-(7-tert-Butyl-7H-pyrrolo[2,3-d]pyrimidine-5-carbonyl)-pyridin-3-yl]-2-(4-chloro-phenyl)-N-methyl-acetamide]	31.6
C[C@@H](CO)n1cc(C(=O)c2cncc(NC(=O)Cn3cc4ccccc4n3)c2)c2cncnc21 [Example 532, N-{5-[7-((S)-2-Hydroxy-1-methyl-ethyl)-7H-pyrrolo[2,3-d]pyrimidine-5-carbonyl]-pyridin-3-yl}-2-indazol-2-yl-acetamide]	11.1

SMILES	IC50 [nM]
COc1nccn2cc(C(=O)Nc3cncc(C(=O)c4cn(C(C)C)c5ncncc45)c3)nc12 [Example 488, 8-Methoxy-imidazo[1,2-a]pyrazine-2-carboxylic acid [5-(7-isopropyl-7H-pyrrolo[2,3-d]pyrimidine-5-carbonyl)-pyridin-3-yl]-amide]	64.6
CC(C)n1cc(C(=O)c2cncc(NC(=O)Nc3cc(C(C)(C)C)nn3-c3cnn(C)c3)c2)c2cncnc21 [Example 527, 1-(3-tert-Butyl-1′-methyl-1′H-[1,4′]bipyrazolyl-5-yl)-3-[5-(7-isopropyl-7H-pyrrolo[2,3-d]pyrimidine-5-carbonyl)-pyridin-3-yl]-urea]	4.64
COCC(C)(C)n1cc(C(=O)c2cncc(NC(=O)Cc3ccc(F)cn3)c2)c2cncnc21 [Example 537, 2-(5-Fluoro-pyridin-2-yl)-N-{5-[7-(2-methoxy-1,1-dimethyl-ethyl)-7H-pyrrolo[2,3-d]pyrimidine-5-carbonyl]-pyridin-3-yl}-acetamide]	10.6
Cc1n[nH]c(C(F)(F)F)c1C(=O)Nc1cncc(C(=O)c2cn(C(C)C)c3ncncc23)c1 [Example 387, 3-Methyl-5-trifluoromethyl-1H-pyrazole-4-carboxylic acid [5-(7-isopropyl-7H-pyrrolo[2,3-d]pyrimidine-5-carbonyl)-pyridin-3-yl]-amide]	6880
Cn1cc(C(=O)c2cncc(NC(=O)Cc3ccc4c(c3)CCO4)c2)c2cncnc21 [Example 189, 2-(2,3-dihydro-1-benzofuran-5-yl)-N-{5-[(7-methyl-7H-pyrrolo[2,3-d]pyrimidin-5-yl)carbonyl]pyridin-3-yl}acetamide]	836
CC(C)n1cc(C(=O)c2cncc(NC(=O)Cn3cnc4ccccc43)c2)c2cncnc21 [Example 133, 2-(1H-benzimidazol-1-yl)-N-{5-[(7-isopropyl-7H-pyrrolo[2,3-d]pyrimidin-5-yl)carbonyl]pyridin-3-yl}acetamide]	681
CC(C)n1cc(C(=O)c2cncc(NC(=O)Cc3cncc(OC4CC4)c3)c2)c2cncnc21 [Example 91, 2-[5-(cyclopropyloxy)pyridin-3-yl]-N-{5-[(7-isopropyl-7H-pyrrolo[2,3-d]pyrimidin-5-yl)carbonyl]pyridin-3-yl}acetamide]	1030
CC(C)n1cc(C(=O)c2cncc(NC(=O)Cc3ccc(Cl)c(Cl)c3)c2)c2cncnc21 [Example 68, 2-(3,4-dichlorophenyl)-N-{5-[(7-isopropyl-7H-pyrrolo[2,3-d]pyrimidin-5-yl)carbonyl]pyridin-3-yl}acetamide]	12.1
COc1ccc2c(ccn2CC(=O)Nc2cncc(C(=O)c3cn(C(C)C)c4ncncc34)c2)n1 [Example 129, N-{5-[(7-isopropyl-7H-pyrrolo[2,3-d]pyrimidin-5-yl)carbonyl]pyridin-3-yl}-2-(5-methoxy-1H-pyrrolo[3,2-b]pyridin-1-yl)acetamide]	3860
Cc1cccc(CCC(=O)Nc2cncc(C(=O)c3cn(C)c4ncncc34)c2)c1 [Example 321, 3-(3-methylphenyl)-N-{5-[(7-methyl-7H-pyrrolo[2,3-d]pyrimidin-5-yl)carbonyl]pyridin-3-yl}propanamide]	3100
Cn1cc(C(=O)c2cncc(NC(=O)Nc3ccc(C(F)(F)F)cc3)c2)c2cncnc21 [Example 294, 1-{5-[(7-methyl-7H-pyrrolo[2,3-d]pyrimidin-5-yl)carbonyl]pyridin-3-yl}-3-[4-(trifluoromethyl)phenyl]urea]	61.4
C[C@H](CO)n1cc(C(=O)c2cncc(NC(=O)Cc3ccc(C#N)cc3)c2)c2cncnc21 [Example 208, 2-(4-cyanophenyl)-N-[5-({7-[(1R)-2-hydroxy-1-methylethyl]-7H-pyrrolo[2,3-d]pyrimidin-5-yl}carbonyl)pyridin-3-yl]acetamide]	129
CC(C)n1cc(C(=O)c2cncc(NC(=O)Cc3cccc(C(=O)c4ccccc4)c3)c2)c2cncnc21 [Example 288, 2-(3-benzoylphenyl)-N-(5-(7-isopropyl-7H-pyrrolo[2,3-d]pyrimidine-5-carbonyl)pyridin-3-yl)acetamide]	43.1
Cn1cc(C(=O)c2cncc(NC(=O)COc3ccccc3)c2)c2cncnc21 [Example 332, N-{5-[(7-methyl-7H-pyrrolo[2,3-d]pyrimidin-5-yl)carbonyl]pyridin-3-yl}-2-phenoxyacetamide]	2180
CCc1nc2ccccc2n1CC(=O)Nc1cncc(C(=O)c2cn(C(C)C)c3ncncc23)c1 [Example 142, 2-(2-ethyl-1H-benzimidazol-1-yl)-N-{5-[(7-isopropyl-7H-pyrrolo[2,3-d]pyrimidin-5-yl)carbonyl]pyridin-3-yl}acetamide]	1380
CC(C)n1cc(C(=O)c2cncc(NC(=O)c3ccc(Cl)cc3)c2)c2cncnc21 [Example 344, 4-chloro-N-(5-{[7-(propan-2-yl)-7H-pyrrolo[2,3-d]pyrimidin-5-yl]carbonyl}pyridin-3-yl)benzamide]	326
